Tests used:
[1] = test system: murine bone marrow-isolated monocytes or bone marrow-derived macrophages; experiment: In vitro stimulation of murine monocytes / bone marrow-derived macrophages, cytokine ELISA; type: cell-based
Method: Naïve bone marrow monocytes were isolated from BM cells. Briefly, hind legs were removed from 3 mice, cleaned from surrounding muscles. The femur and tibia bones were trimmed at their extremities, the BM content was flushed out with cold PBS using a 10 ml syringe and a 25G needle and filtered through a 40 μm strainer. Red blood cells (RBC) were lysed with 1× RBC lysis buffer (Biolegend) for 5 min. on ice. CD11b+ monocytes were further purified by positive selection using a cocktail of CD11 b magnetic beads (Miltenyi Biotec, #130-049-601) and magnetizing MS columns (Miltenyi Biote) according to the manufacturer's instructions. Subsequently, monocytes were seeded in F-bottom 96-well plates at 1×10^5 cells per well in RPMI1640 supplemented with 10% heat-inactivated fetal bovine serum, penicillin (100 U/ml), streptomycin (100 μg/ml), L-glutamine (2 mM) […]. Monocytes were activated with 10 μg/ml LPS (Sigma-Aldrich) and subjected to treatment with 6-BT (10/100 μM), LysoPC(20:0) (10/50 μM), MA-GPC (10/50/100 μM), or appropriate vehicle. Cells were kept in a final volume of 200 μl/well for 24 hours, after which supernatant was harvested and stored at −80° C.
Bone marrow-derived macrophages (BMDM) and DC (BMDC) were obtained by differentiating freshly isolated BM cells from femur and tibia bones (as above described) of C57/B16 mice (N=3 per experiment). For BMDM, BM cells were seeded at 3×10^6 cells per 10 cm dish and cultured for 7 days in 12 ml RPMI1640 medium with 20% fetal bovine serum, 30% L-929 cell conditioned media, as source of murine macrophage colony-stimulating factor (M-CSF). For BMDC, BM cells were seeded at 0.5×10^6/ml cells in 25 ml in 10 cm dishes and cultured for 7 days in presence of GM-CSF in 5% FBS-RPMI1640 medium. After differentiation, BMDM/DCs were harvested, counted and seeded at a density of 1×10^5 cells per well in a F-bottom 96-well plate and left to adhere for 20 hours before experiments were performed. Macrophages were activated with 10 μg/ml polyinosinic-polycytidylic acid poly(I.C) (InvivoGen) for 24 hours in presence or not of 6-BT (10/100 μM), LysoPC(20:0) (10/50 μM), or MA-GPC (10/50/100 μM) in a final volume of 200 μl/well. At the end of the assay, supernatant was harvested and stored at −80° C.
Specific ELISAs (R&D Systems) were utilized to measure the concentration of TNFα, IFNβ, and IFNγ in cell supernatant of murine monocytes, macrophages ad T cells, respectively, according to the manufacturer's instructions. The concentration of insulin after 24-hour treatment with metabolites or after GSIS were determined using Rat insulin ELISA (Mercodia) according to the manufacturer's instructions. GSIS was calculated by subtracting the concentration of insulin at 1 mM glucose to the insulin rate at 22 mM glucose.
Here, murine bone marrow-isolated monocytes (Christ A., Western Diet Triggers NLRP3-Dependent Innate Immune Reprogramming. Cell 2018) or bone marrow-derived macrophages (Swanson K V, A noncanonical function of cGAMP in inflammasome priming and activation. JEM 2017) were exposed for 24 hours to the indicated concentrations of 6-BT (10-100 μM) in presence or not of 10 μg/ml LPS, 10 μg/ml P3C or 10 μg/ml poly(I.C).

[2] = test system: human (Jurkat) CD4 T cells; experiment: Seahorse XF mitochondrial metabolism (OCR), Jurkat CD4 T cells; type: cell-based; settings: 100 uM; human (Jurkat) CD4 T cells (FIG. 22)
Method: Finally, it was uncovered that 6-BT also impacts the intracellular metabolism.
OCR=oxygen consumption rate, used as a proxy of cellular utilization of mitochondrial oxidative phosphorylation. OCR was measured using a Seahorse XF Analyzer Uchimura T., The Innate Immune Sensor NLRC3 Acts as a Rheostat that Fine-Tunes T Cell Responses in Infection and Autoimmunity. Immunity 2019; Chou, AIM2 in regulatory T cells restrains autoimmune diseases, Nature 2021.

INS1E beta cells = experiment: Seahorse XF intracellular metabolism, INS1E beta cells; type: cell-based, rat
Text: Lastly, it was investigated whether 6-BT may influence the mitochondrial metabolism of beta cells, which rely on ATP and mitochondrial metabolite production for insulin exocytosis. […] Intracellular metabolism measured using a Seahorse XF Analyzer Uchimura T., The Innate Immune Sensor NLRC3 Acts as a Rheostat that Fine-Tunes T Cell Responses in Infection and Autoimmunity.

## N[C@@H](Cc1c[nH]c2cc(Br)ccc12)C(=O)O [6-BT, 6-bromotryptophan]
[1]; 10-100 μM, 24 hours, 10 μg/ml LPS, ELISA (FIG. 14)
  secretion of TNFα upon TLR4 engagement: can inhibit the secretion
[1]; 10-100 μM, 24 hours, 10 μg/ml P3C, ELISA (FIG. 14)
  secretion of TNFα upon TLR2 engagement: can inhibit the secretion
[1]; 10-100 μM, 24 hours, 10 μg/ml poly(I.C), ELISA (FIG. 14)
  secretion of IFNbeta upon TLR3 activation: can inhibit the secretion
[1]; PolyI:C for 24 hours, TLR3 stimulation (FIG. 9)
  type 1 IFN secretion: impair type 1 IFN secretion
[1]; monocytes isolated from murine bone marrow, 6-BT vs tryptophan
  anti-inflammatory effects on monocytes: anti-inflammatory effects are specific for the 6-bromotryptophan molecule
[1]; murine monocytes CD11b+ activated with LPS (10 μg/ml) for 24 hours, TLR4 stimulation (FIG. 8)
  cytokine secretion by monocytes: halt cytokine secretion
[2]
  mitochondrial metabolism (OCR): promotes the mitochondrial metabolism
INS1E beta cells; INS1E beta cells (FIG. 24)
  mitochondria metabolism at steady-state: increased mitochondria metabolism
INS1E beta cells; INS1E beta cells, 25 mM glucose (FIG. 24)
  mitochondria metabolism under hyperglycemia: increased mitochondria metabolism

— patent US12648928B2, “Intervention strategy for prevention or treatment of diabetes mellitus, autoimmune disease, inflammatory disease or cardiovascular disease” (ACADEMISCH MEDISCH CENTRUM, priority 2020, dated 2026)
